Assay results reported in patent EP0745595A1, “3-(3-Aryloxyphenyl)-1-(substituted methyl)-s-triazine-2,4,6-oxo or thiotrione herbicidal agents” (American Cyanamid Company, priority 1995, dated 1996).

Legend:
Format in all cases: in vivo
[1] = system: TRITICUM AESTIVUM, CV. APOLLO; test: Postemergence herbicidal evaluation, TRZAWO (Wheat, Winter, CV. APOLLO)
Description: In the tests, seedling plants are grown in jiffy flats for about two weeks. The test compounds are dispersed in 50/50 acetone/water mixtures containing 0.5% TWEEN®20, a polyoxyethylene sorbitan monolaurate surfactant of Atlas Chemical Industries, […] through a spray nozzle operating at 40 psi for a predetermined time. After spraying, the plants are placed on greenhouse benches and are cared for in the usual manner, commensurate with conventional greenhouse practices. From four to five weeks after treatment, the seedling plants are examined and rated according to the rating system set forth below. Where more than one test is involved for a given compound, the data are averaged.
(§1) Plant species employed in these evaluations are reported by header abbreviation, common name and scientific name.
(§2) Results of herbicide evaluation are expressed on a rating scale (0-9). The scale is based upon a visual observation of plant stand, vigor, malformation, size, chlorosis and overall plant appearance as compared with a control.

[2] = system: AMBROSIA ARTEMISIIFOLIA, L.; test: Postemergence herbicidal evaluation, AMBEL (Ragweed, Common)
Method in brief: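 Common ragweed (Ambrosia artemisiifolia) seedlings were raised in jiffy flats for roughly two weeks, then sprayed postemergence through a nozzle at 40 psi with the test compound dispersed in 50/50 acetone/water carrying 0.5% TWEEN®20. The plants were kept on greenhouse benches under conventional care. Four to five weeks later, injury was rated visually on a 0-9 scale, and repeat tests were averaged.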

[3] = system: ORYZA SATIVA, L. TEBONNET; test: Rice tolerance to post-transplant applications under flooded paddy conditions, ORYSAT (Rice, Tebonnet); settings: for Herbicidal effect rating, ORYSAT: 0.500 kg/ha, post-transplant rice, 3-4 weeks after treatment; for ORYSAT: post-transplanted rice
Method in brief: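 Two ten-day-old Tebonnet rice seedlings were transplanted into silt loam and kept flooded 1.5 to 3 cm deep. Three days after transplanting, the flood surface received the compound in aqueous/acetone 50/50 v/v at about 0.5, 0.25, 0.125 or 0.063 kg/ha. Injury was rated visually on a 0-9 scale versus control after 3-4 weeks.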

[4] = system: CHENOPODIUM ALBUM, L.; test: Preemergence herbicidal evaluation, CHEAL (Lambsquarters, Common); settings: rated four to five weeks after treatment
Method in brief: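 First, seeds in potting soil are sown atop soil in cups. Next, the surface is sprayed with test compound in aqueous acetone at roughly 0.125 to 0.50 kg per hectare. After four to five weeks of greenhouse care, each cup is scored 0-9 against a control.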

[5] = system: ECHINOCHLOA CRUS-GALLI, (L) BEAU; test: Postemergence herbicidal evaluation, ECHCG (Barnyardgrass); parameters: key to ECHCG rating / Herbicidal effect rating, ECHCG / ECHCG: 0-9 visual rating scale vs untreated control
Method in brief: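 Visual 0–9 scores reflect stand, vigor, malformation, size, chlorosis and overall appearance relative to control, taken 4–5 weeks after spraying two-week-old seedlings with about 0.125–0.500 kg/ha compound in acetone/water/TWEEN 20.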

[6] = system: GALIUM APARINE; test: Postemergence herbicidal evaluation, GALAP (Galium); parameters: key to GALAP rating / Herbicidal effect rating, GALAP / GALAP: 0-9 visual rating scale vs untreated control
Method in brief: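 Galium (GALAP) seedlings were raised in jiffy flats for about two weeks, then sprayed with test compounds dispersed in 50/50 acetone/water containing 0.5% TWEEN®20, delivered through a nozzle at 40 psi. Plants were kept on greenhouse benches and visually rated 0-9 against a control four to five weeks later; repeat tests were averaged.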

[7] = system: CHENOPODIUM ALBUM, L.; test: Postemergence herbicidal evaluation, CHEAL (Lambsquarters, Common)
Method in brief: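 Seedlings of common lambsquarters (Chenopodium album) were raised in jiffy flats for roughly two weeks, then sprayed postemergence through a nozzle at 40 psi with test compound dispersed in 50/50 acetone/water containing 0.5% TWEEN®20 surfactant. Plants were kept on greenhouse benches under standard care and rated visually on a 0-9 scale versus controls.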

[8] = system: CASSIA OBTUSIFOLIA, L.; test: Postemergence herbicidal evaluation, CASOB (Sicklepod); parameters: key to CASOB rating / Herbicidal effect rating, CASOB / CASOB: 0-9 visual rating scale vs untreated control
Method in brief: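 Seedlings about two weeks old were sprayed with compound in 50/50 acetone/water containing 0.5% Tween 20 at about 0.125-0.500 kg/ha and kept in the greenhouse. Visual injury was rated on a 0-9 scale versus control 4-5 weeks after treatment; repeat tests were averaged.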

[9] = system: ABUTILON THEOPHRASTI, MEDIC.; test: Postemergence herbicidal evaluation, ABUTH (Velvetleaf)
Method in brief: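 Velvetleaf (Abutilon theophrasti) seedlings were raised in jiffy flats for about two weeks and then sprayed postemergence. The test compound was dispersed in a 50/50 acetone/water mixture containing 0.5% TWEEN®20 and applied through a nozzle operating at 40 psi. Plants were kept on greenhouse benches and rated 0-9 four to five weeks after treatment.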

[10] = system: ZEA MAYS L.; test: Postemergence herbicidal evaluation, ZEAMX (Corn, Field)
Description: In the tests, seedling plants are grown in jiffy flats for about two weeks. The test compounds are dispersed in 50/50 acetone/water mixtures containing 0.5% TWEEN®20, a polyoxyethylene sorbitan monolaurate surfactant of Atlas Chemical Industries, […] to the plants through a spray nozzle operating at 40 psi for a predetermined time. After spraying, the plants are placed on greenhouse benches and are cared for in the usual manner, commensurate with conventional greenhouse practices. From four to five weeks after treatment, the seedling plants are examined and rated according to the rating system set forth below. Where more than one test is involved for a given compound, the data are averaged.
as §1, §2

[11] = system: IPOMOEA SPP.; test: Postemergence herbicidal evaluation, IPOSS (Morningglory spp.);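 note: higher means more injury with 8 approaching complete kill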
Method in brief: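 Seedlings of morningglory (Ipomoea spp.) were raised in jiffy flats for roughly two weeks. They were then sprayed postemergence through a nozzle at 40 psi with test compound dispersed in 50/50 acetone/water containing 0.5% TWEEN®20 surfactant. Plants were kept on greenhouse benches under standard care and visually rated 0-9 against controls four to five weeks after treatment.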

COC(=O)Cn1c(=O)n(C)c(=O)n(-c2cc(Oc3ccc(SC)cc3Cl)ccc2[N+](=O)[O-])c1=O [Compound 34, Methyl 3-{5-[2-chloro-4-(methylthio)-phenoxy]-2-nitrophenyl}tetrahydro-5-methyl-2,4,6-trioxo-s-triazine-1(2H)-acetate]
TRZAWO rating ([1]; Rate 0.125 kg/ha): 2.0 | TRZAWO rating ([1]; Rate 0.250 kg/ha): 2.0 | TRZAWO rating ([1]; Rate 0.500 kg/ha): 2.0 | AMBEL rating ([2]; Rate 0.125 kg/ha): 2.0 | AMBEL rating ([2]; Rate 0.250 kg/ha): 2.0 | AMBEL rating ([2]; Rate 0.500 kg/ha): 2.0 | Herbicidal effect rating, ORYSAT [3]: 0.0 | CHEAL herbicidal rating ([4]; Rate 0.125 kg/ha): 0.0 | CHEAL herbicidal rating ([4]; Rate 0.250 kg/ha): 0.0 | CHEAL herbicidal rating ([4]; Rate 0.500 kg/ha): 0.0 | ECHCG rating ([5]; Rate 0.125 kg/ha): 0.0 | ECHCG rating ([5]; Rate 0.250 kg/ha): 0.0 | ECHCG rating ([5]; Rate 0.500 kg/ha): 0.0

COC(=O)Cn1c(=O)n(C)c(=O)n(-c2cc(Oc3cc(Cl)cc(Cl)c3)ccc2[N+](=O)[O-])c1=O [Compound 35, Methyl 3-[5-(3,5-dichlorophenoxy)-2-nitrophenyl]tetrahydro-5-methyl-2,4,6-trioxo-s-triazine-1(2H)-acetate]
TRZAWO rating ([1]; Rate 0.125 kg/ha): 0.0 | TRZAWO rating ([1]; Rate 0.250 kg/ha): 0.0 | TRZAWO rating ([1]; Rate 0.500 kg/ha): 0.0 | AMBEL rating ([2]; Rate 0.125 kg/ha): 0.0 | AMBEL rating ([2]; Rate 0.250 kg/ha): 0.0 | AMBEL rating ([2]; Rate 0.500 kg/ha): 0.0 | Herbicidal effect rating, ORYSAT [3]: 0.0 | GALAP rating ([6]; Rate 0.125 kg/ha): 0.0 | GALAP rating ([6]; Rate 0.250 kg/ha): 0.0 | GALAP rating ([6]; Rate 0.500 kg/ha): 0.0 | CHEAL rating ([7]; Rate 0.125 kg/ha): 0.0 | CHEAL rating ([7]; Rate 0.250 kg/ha): 0.0 | CHEAL rating ([7]; Rate 0.500 kg/ha): 0.0 | CASOB rating ([8]; Rate 0.125 kg/ha): 0.0 | CASOB rating ([8]; Rate 0.250 kg/ha): 0.0 | CASOB rating ([8]; Rate 0.500 kg/ha): 0.0 | CHEAL herbicidal rating ([4]; Rate 0.500 kg/ha): 0.0 | ABUTH rating ([9]; Rate 0.125 kg/ha): 0.0 | ABUTH rating ([9]; Rate 0.250 kg/ha): 0.0 | ABUTH rating ([9]; Rate 0.500 kg/ha): 0.0 | ECHCG rating ([5]; Rate 0.125 kg/ha): 0.0 | ECHCG rating ([5]; Rate 0.250 kg/ha): 0.0 | ECHCG rating ([5]; Rate 0.500 kg/ha): 0.0 | ZEAMX rating ([10]; Rate 0.125 kg/ha): 1.0 | ZEAMX rating ([10]; Rate 0.250 kg/ha): 1.0 | ZEAMX rating ([10]; Rate 0.500 kg/ha): 1.0

Cn1c(=O)[nH]c(=O)n(-c2cccc(Oc3ccc(C(F)(F)F)cc3Cl)c2)c1=O [E, reference compound]
TRZAWO ([1]; Rate 0.063 kg/ha): 1.0 | TRZAWO ([1]; Rate 0.125 kg/ha): 1.0 | TRZAWO ([1]; Rate 0.250 kg/ha): 1.0 | TRZAWO ([1]; Rate 0.500 kg/ha): 1.5 | IPOSS ([11]; Rate 0.063 kg/ha): 5.0 | IPOSS ([11]; Rate 0.125 kg/ha): 5.0 | IPOSS ([11]; Rate 0.250 kg/ha): 5.0 | IPOSS ([11]; Rate 0.500 kg/ha): 6.0 | AMBEL ([2]; Rate 0.063 kg/ha): 2.0 | AMBEL ([2]; Rate 0.125 kg/ha): 2.0 | AMBEL ([2]; Rate 0.250 kg/ha): 4.0 | AMBEL ([2]; Rate 0.500 kg/ha): 5.0 | ORYSAT ([3]; Rate 0.250 kg/ha): 0.0 | ORYSAT ([3]; Rate 0.500 kg/ha): 0.0 | ORYSAT ([3]; Rate 1.000 kg/ha): 0.0 | GALAP ([6]; Rate 0.063 kg/ha): 3.0 | GALAP ([6]; Rate 0.125 kg/ha): 4.0 | GALAP ([6]; Rate 0.250 kg/ha): 5.0 | GALAP ([6]; Rate 0.500 kg/ha): 2.5 | CHEAL ([7]; Rate 0.063 kg/ha): 7.0 | CHEAL ([7]; Rate 0.125 kg/ha): 7.0 | CHEAL ([7]; Rate 0.250 kg/ha): 8.0 | CHEAL ([7]; Rate 0.500 kg/ha): 8.0 | CASOB ([8]; Rate 0.063 kg/ha): 2.0 | CASOB ([8]; Rate 0.125 kg/ha): 3.0 | CASOB ([8]; Rate 0.250 kg/ha): 5.0 | CASOB ([8]; Rate 0.500 kg/ha): 2.0 | ABUTH ([9]; Rate 0.063 kg/ha): 4.0 | ABUTH ([9]; Rate 0.125 kg/ha): 5.0 | ABUTH ([9]; Rate 0.250 kg/ha): 5.0 | ABUTH ([9]; Rate 0.500 kg/ha): 6.0 | ECHCG ([5]; Rate 0.063 kg/ha): 0.0 | ECHCG ([5]; Rate 0.125 kg/ha): 0.0 | ECHCG ([5]; Rate 0.250 kg/ha): 1.0 | ECHCG ([5]; Rate 0.500 kg/ha): 3.0 | ZEAMX ([10]; Rate 0.063 kg/ha): 1.5 | ZEAMX ([10]; Rate 0.125 kg/ha): 1.5 | ZEAMX ([10]; Rate 0.250 kg/ha): 1.5 | ZEAMX ([10]; Rate 0.500 kg/ha): 2.5
